Assay results published in patent publication US20120220581A1, “IMIDAZO[1,2-b]PYRIDAZINE DERIVATIVES AND THEIR USE AS PDE10 INHIBITORS” (Janssen-Cilag, S.A., priority 2009, published 2012).

What was measured:
[1] = system: SCH-23390-induced hypolocomotion in mice; test: SCH-23390-induced hypolocomotion in mice; assay type: in vivo; conditions: Mus musculus
Description: SCH-23390 (0.08 mg/kg, i.v.)-induced hypolocomotion was evaluated over a 30-min period starting immediately after the SCH-23390 challenge in male NMRI mice pretreated 0.5 h earlier with test compound or solvent. Averaged activity in solvent-treated control mice was 1540±559 counts (mean±SD; n=103). Criterion for drug-induced reversal of the SCH-23390-induced hypolocomotion: total distance: >2500 counts (2.9% false positives in controls).

[2] = biological target: PDE1B1 (Homo sapiens, UniProt Q01064); test: In vitro PDE selectivity assay (SPA), PDE1B1; assay type: biochemical; conditions: hPDE1B1; read-out: PDE 1B1 (expressed as pIC50) (converted)
[3] = system: female hooded-Lister rats; test: Object recognition test (NOR) after sub-chronic PCP; assay type: in vivo, rat; conditions: Day 1, 3 min retention trial, mean
[4] = biological target: other members of the PDE family (Homo sapiens, UniProt P16499+P35913); test: In vitro PDE selectivity assay (SPA), other members of the PDE family (protocols in Table A); assay type: biochemical; conditions: hPDE6AB; read-out: PDE 6AB (expressed as pIC50) (converted)
How it was run: (§1)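 Inhibition of each PDE isoform was measured by scintillation proximity assay with ³H-cyclic nucleotide substrate, using incubation buffer, substrate concentration, incubation time and stop solution adapted per isoform. Compounds were tested in dose-response against 1% DMSO controls and enzyme-free blanks. IC50 came from a least-squares fit of blank-subtracted % of control versus concentration.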

[5] = biological target: other members of the PDE family (Homo sapiens, UniProt Q9HCR9); test: as above; assay type: biochemical; conditions: hPDE11A4; read-out: PDE 11A4 (expressed as pIC50) (converted)
How it was run: as §1

[6] = biological target: other members of the PDE family (Homo sapiens, UniProt O60658); test: as above; assay type: biochemical; conditions: hPDE8A1; read-out: PDE 8A1 (expressed as pIC50) (converted)
How it was run: as §1

[7] = biological target: other members of the PDE family (Homo sapiens, UniProt O76083); test: as above; assay type: biochemical; conditions: hPDE9A; read-out: PDE 9A (expressed as pIC50) (converted)
How it was run: as §1

[8] = system: apomorphine-induced stereotypy in rats; test: Apomorphine-induced stereotypy in rats (APO); assay type: in vivo; conditions: Rattus norvegicus; dose at which 50% of the tested animals show the effect; ≧: active in 30% of the animals at the indicated dose; ≦: active in 60%
Description: Apomorphine (1.0 mg/kg, i.v.)-induced stereotypy (compulsive sniffing, licking, chewing) was scored every 5 min over the first hour after injection of apomorphine, following a 1 hour interval pre-treatment with the test compound. The score system was: (3) pronounced, (2) moderate, (1) slight, and (0) absent.

[9] = system: conditioned avoidance response in rats; test: Conditioned avoidance response (CAR) test; assay type: in vivo; conditions: Rattus norvegicus
From the text: The apparatus consisted of an inner box surrounded by an outer box. The inner box was composed of four walls of transparent, synthetic material (length×width×height: 30×30×30 cm), an open top, and a grid floor made of 15 pairs of iron bars (2 mm diameter; 6 mm inter-bar distance). Odd and even bars were connected with a source of alternative current (1.0 mA; Coulbourn Instruments Solid State Shocker/Distributor), which could be interrupted by a switch. The outer box was composed of the same material (length×width×height: 40×40×36 cm), also with an open top, with a distance of 5 cm between the inner and outer box on all sides. To decrease the amount of environmental stimuli, three walls of the outer box were made non-transparent. The front wall was left transparent to allow the necessary inspection of the animal during the test. The upper edge of the outer and inner box served as a target for the rats on which to jump with fore- and hind-paws, respectively.
From their arrival in the laboratory on the experimental day, male Wiga Wistar rats (230±30 g) were housed in individual cages provided with bedding material.
The rats were tested 3 times, i.e. at 60, 90 and 120 min after the injection of test compound or solvent. Latency to avoidance was recorded. The median avoidance response obtained over the three experimental sessions for each rat were used for further calculations.

Sequence of other members of the PDE family (Homo sapiens, UniProt O76083) (O76083 whole entry): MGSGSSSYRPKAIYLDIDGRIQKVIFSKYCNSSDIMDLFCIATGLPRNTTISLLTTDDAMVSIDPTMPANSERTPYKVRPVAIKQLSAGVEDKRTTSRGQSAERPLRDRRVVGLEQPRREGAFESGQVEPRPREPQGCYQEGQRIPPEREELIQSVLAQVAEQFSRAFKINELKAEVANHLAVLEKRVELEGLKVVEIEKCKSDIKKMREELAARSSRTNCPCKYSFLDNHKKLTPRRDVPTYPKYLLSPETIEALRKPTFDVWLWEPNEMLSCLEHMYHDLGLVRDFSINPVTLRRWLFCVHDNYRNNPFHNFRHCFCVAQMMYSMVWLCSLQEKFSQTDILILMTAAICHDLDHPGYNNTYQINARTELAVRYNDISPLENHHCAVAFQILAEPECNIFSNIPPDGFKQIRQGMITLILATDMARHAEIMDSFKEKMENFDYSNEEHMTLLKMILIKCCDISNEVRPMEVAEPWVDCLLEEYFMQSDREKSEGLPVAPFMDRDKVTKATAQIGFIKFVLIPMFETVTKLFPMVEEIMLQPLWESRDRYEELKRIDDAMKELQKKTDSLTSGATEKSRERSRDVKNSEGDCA
Sequence of other members of the PDE family (Homo sapiens, UniProt Q9HCR9) (Q9HCR9 whole entry): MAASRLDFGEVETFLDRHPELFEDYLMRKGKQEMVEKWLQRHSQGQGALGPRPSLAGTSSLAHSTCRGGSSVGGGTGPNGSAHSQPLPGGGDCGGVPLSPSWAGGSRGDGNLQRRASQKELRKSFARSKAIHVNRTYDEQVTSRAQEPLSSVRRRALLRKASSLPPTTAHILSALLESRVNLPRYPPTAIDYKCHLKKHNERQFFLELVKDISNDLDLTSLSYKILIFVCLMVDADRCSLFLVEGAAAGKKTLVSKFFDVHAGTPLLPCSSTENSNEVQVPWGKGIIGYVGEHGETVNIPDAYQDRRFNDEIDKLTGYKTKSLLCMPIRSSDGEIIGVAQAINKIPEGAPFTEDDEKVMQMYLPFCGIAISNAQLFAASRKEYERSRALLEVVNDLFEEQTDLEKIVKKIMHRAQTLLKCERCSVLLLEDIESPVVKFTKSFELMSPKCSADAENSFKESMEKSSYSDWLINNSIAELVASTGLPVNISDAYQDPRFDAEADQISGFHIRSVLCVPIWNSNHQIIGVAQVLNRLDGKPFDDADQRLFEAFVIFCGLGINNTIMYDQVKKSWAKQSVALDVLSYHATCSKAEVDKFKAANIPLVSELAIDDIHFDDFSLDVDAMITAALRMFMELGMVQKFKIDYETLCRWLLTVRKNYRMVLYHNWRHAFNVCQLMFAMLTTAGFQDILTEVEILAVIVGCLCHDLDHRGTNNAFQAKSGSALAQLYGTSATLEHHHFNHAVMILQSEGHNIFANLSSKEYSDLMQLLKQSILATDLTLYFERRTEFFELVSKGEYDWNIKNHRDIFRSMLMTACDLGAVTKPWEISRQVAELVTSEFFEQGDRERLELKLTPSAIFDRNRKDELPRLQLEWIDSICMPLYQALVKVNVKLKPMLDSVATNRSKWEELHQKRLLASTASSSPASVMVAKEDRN
Sequence of PDE1B1 (Q01064 whole entry, species assumed): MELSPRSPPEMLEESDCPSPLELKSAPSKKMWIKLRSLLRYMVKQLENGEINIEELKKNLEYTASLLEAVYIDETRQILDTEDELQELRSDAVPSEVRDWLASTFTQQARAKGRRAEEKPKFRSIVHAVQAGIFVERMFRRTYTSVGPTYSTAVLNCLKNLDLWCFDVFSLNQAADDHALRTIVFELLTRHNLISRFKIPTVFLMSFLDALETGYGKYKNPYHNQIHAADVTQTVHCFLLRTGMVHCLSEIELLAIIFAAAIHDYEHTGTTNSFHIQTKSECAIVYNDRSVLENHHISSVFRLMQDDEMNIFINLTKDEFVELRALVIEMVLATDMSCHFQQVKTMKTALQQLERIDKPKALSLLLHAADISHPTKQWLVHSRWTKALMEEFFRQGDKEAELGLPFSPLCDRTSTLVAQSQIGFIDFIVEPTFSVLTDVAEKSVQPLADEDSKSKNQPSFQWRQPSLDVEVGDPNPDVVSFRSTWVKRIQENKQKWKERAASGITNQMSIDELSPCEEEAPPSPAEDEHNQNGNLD
Sequence of other members of the PDE family (Homo sapiens, UniProt O60658) (O60658 whole entry): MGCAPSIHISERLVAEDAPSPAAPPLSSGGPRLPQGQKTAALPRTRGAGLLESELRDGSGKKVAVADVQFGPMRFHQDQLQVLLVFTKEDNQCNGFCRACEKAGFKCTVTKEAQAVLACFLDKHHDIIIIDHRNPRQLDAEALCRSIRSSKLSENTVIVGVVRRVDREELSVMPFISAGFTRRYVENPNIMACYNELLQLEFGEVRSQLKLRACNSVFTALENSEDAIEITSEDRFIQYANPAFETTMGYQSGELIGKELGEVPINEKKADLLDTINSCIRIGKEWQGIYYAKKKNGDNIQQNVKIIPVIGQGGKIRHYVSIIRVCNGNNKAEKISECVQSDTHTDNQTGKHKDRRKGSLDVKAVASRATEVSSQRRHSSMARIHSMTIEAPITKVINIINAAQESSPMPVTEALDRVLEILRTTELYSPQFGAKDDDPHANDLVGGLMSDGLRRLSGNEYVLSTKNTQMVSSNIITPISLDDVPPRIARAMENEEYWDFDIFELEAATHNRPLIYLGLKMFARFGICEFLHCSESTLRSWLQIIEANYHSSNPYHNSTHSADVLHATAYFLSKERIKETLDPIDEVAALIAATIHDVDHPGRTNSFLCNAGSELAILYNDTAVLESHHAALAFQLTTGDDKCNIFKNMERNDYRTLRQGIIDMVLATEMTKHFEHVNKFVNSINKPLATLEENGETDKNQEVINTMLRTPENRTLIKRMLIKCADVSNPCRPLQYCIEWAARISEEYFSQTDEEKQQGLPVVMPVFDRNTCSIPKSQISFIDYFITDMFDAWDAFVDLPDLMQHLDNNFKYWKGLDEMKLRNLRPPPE
Sequence of other members of the PDE family (Homo sapiens, UniProt P16499+P35913) (P16499 whole entry, canonical isoform): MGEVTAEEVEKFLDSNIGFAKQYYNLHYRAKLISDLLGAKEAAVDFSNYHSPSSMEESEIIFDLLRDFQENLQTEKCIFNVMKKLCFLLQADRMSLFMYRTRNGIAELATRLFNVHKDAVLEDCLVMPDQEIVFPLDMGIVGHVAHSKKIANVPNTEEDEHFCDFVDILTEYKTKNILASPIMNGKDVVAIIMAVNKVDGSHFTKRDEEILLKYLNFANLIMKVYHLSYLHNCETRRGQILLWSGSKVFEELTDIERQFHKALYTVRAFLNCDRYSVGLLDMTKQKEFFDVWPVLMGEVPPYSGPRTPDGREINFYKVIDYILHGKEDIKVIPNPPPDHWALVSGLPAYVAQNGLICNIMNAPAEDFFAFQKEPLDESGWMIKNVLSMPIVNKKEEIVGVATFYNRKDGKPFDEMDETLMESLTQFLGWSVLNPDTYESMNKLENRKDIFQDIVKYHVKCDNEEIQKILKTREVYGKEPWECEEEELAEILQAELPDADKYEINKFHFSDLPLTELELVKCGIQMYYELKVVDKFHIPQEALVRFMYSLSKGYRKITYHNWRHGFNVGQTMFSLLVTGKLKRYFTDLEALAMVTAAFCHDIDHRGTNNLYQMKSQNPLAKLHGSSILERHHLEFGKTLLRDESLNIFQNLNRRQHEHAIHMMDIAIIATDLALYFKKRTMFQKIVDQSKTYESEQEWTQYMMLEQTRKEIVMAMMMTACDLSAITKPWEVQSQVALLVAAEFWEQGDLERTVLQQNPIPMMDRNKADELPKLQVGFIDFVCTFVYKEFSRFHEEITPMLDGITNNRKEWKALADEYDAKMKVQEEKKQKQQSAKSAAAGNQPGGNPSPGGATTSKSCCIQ
Sequence of other members of the PDE family (Homo sapiens, UniProt P16499+P35913) (P35913 whole entry, canonical isoform): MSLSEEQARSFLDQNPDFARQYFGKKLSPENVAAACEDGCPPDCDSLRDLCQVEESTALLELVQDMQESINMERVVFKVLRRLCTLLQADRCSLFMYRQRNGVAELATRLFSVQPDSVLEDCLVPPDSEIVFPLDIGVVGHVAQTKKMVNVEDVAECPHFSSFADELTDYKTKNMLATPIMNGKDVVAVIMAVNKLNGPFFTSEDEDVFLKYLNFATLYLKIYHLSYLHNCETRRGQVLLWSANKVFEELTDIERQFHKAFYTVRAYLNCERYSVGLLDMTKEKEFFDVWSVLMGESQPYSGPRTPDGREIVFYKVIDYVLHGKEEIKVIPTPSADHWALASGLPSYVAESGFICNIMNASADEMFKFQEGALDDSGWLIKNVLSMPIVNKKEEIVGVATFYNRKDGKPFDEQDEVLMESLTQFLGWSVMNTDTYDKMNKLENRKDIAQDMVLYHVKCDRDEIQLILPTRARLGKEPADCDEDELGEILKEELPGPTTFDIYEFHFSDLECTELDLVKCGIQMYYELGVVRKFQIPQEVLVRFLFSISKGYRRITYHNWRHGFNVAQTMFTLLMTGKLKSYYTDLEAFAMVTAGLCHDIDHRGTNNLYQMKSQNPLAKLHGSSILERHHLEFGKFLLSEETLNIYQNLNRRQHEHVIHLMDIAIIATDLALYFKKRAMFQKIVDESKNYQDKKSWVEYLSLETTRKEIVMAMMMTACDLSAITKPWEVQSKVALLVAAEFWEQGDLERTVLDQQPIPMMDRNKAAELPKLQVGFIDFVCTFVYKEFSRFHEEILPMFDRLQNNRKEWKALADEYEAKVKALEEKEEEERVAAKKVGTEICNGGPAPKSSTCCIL

For `COCCc1ccc(-c2c(C)nc3c(N4CCOCC4)ccnn23)cn1` [compound 1, 3-[6-(2-methoxyethyl)-3-pyridinyl]-2-methyl-8-(4-morpholinyl)-imidazo[1,2-b]pyridazine], the ED50 [1] was 7.1 mg/kg, the IC50 [2] was 5.25 µM and the “T2(A) exploration time of familiar object, retention trial” value ([3]; PCP + 0.3 mg/kg p.o.) was 11.8 s. For the same molecule, the “T2(B) exploration time of novel object, retention trial” value ([3]; PCP + 0.3 mg/kg p.o.) was 17.6 s, the “T2(A) exploration time of familiar object, retention trial” value ([3]; PCP + 1 mg/kg p.o.) was 10.7 s and the “T2(B) exploration time of novel object, retention trial” value ([3]; PCP + 1 mg/kg p.o.) was 22.3 s. It also gave an IC50 [4] of 85.1 µM, an IC50 [5] of 74.1 µM and an IC50 [6] of 77.6 µM. It also gave an IC50 [7] of over 100 µM, an ED50 [8] of 1.3 mg/kg and an ED50 [9] of 4.7 mg/kg.
`COCCOc1ccc(-c2c(C)nc3c(-c4ccncc4)ccnn23)cn1` [compound 21, 3-[6-(2-methoxyethoxy)-3-pyridinyl]-2-methyl-8-(4-pyridinyl)-imidazo[1,2-b]pyridazine] was tested, and the ED50 [1] was 5 mg/kg, the IC50 [5] was over 50.1 µM and the IC50 [7] was over 50.1 µM. For the same molecule, the ED50 [8] was 1.5 mg/kg and the ED50 [9] was 5.4 mg/kg.
